Measured values reported in the supplement of paper PMC10307832.

How the values were obtained:
Experiment in all cases: relative viability (nuclei count vs DMSO), 5 days (fraction); higher = more cells survive
201T = tested on: 201T
Procedure, shortened: (§1)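 Lung cancer cell lines were seeded in 1536-well plates and dosed by pin tool the next day, with either a single drug or a fixed anchor-drug dose combined with five library-drug doses (not always all listed) spaced in √10 steps. Five days later, one step fixed the cells and stained their nuclei (final 0.05% Triton X-100, 1% formaldehyde, 1 ug/ml Hoechst), and nuclei were counted on 4× images. Relative viability is the nuclei count in treated wells divided by the count in vehicle wells, and each value is the median of duplicate plates.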

A-427 = tested on: A-427
Procedure, shortened: as §1

BEN = tested on: BEN
Procedure, shortened: as §1

COR-L 105 = tested on: COR-L 105
Procedure, shortened: as §1

COR-L23 = tested on: COR-L23
Procedure, shortened: as §1

EKVX = tested on: EKVX
Procedure, shortened: as §1

HARA = tested on: HARA
Procedure, shortened: as §1

HCC-15 = tested on: HCC-15
Procedure, shortened: as §1

HCC-44 = tested on: HCC-44
Procedure, shortened: as §1

HCC-827 = tested on: HCC-827
Procedure, shortened: as §1

LK-2 = tested on: LK-2
Procedure, shortened: as §1

NCI-H1437 = tested on: NCI-H1437
Procedure, shortened: as §1

NCI-H1666 = tested on: NCI-H1666
Procedure, shortened: as §1

NCI-H1792 = tested on: NCI-H1792
Procedure, shortened: as §1

NCI-H1975 = tested on: NCI-H1975
Procedure, shortened: as §1

NCI-H23 = tested on: NCI-H23
Procedure, shortened: as §1

NCI-H358 = tested on: NCI-H358
Procedure, shortened: as §1

NCI-H596 = tested on: NCI-H596
Procedure, shortened: as §1

NCI-H650 = tested on: NCI-H650
Procedure, shortened: as §1

NCI-H838 = tested on: NCI-H838
Procedure, shortened: as §1

SK-MES-1 = tested on: SK-MES-1
Procedure, shortened: as §1

CC1(C)CCC(c2ccc(Cl)cc2)=C(CN2CCN(c3ccc(C(=O)NS(=O)(=O)c4ccc(N[C@H](CCN5CCOCC5)CSc5ccccc5)c(S(=O)(=O)C(F)(F)F)c4)cc3)CC2)C1 [Navitoclax] + CS(=O)(=O)CCNCc1ccc(-c2ccc3ncnc(Nc4ccc(OCc5cccc(F)c5)c(Cl)c4)c3c2)o1 [Lapatinib] (partner 2 µM)
relative viability (201T; first compound 0.005 µM): 1.06
relative viability (201T; first compound 0.01581 µM): 1.12
relative viability (201T; first compound 0.05 µM): 0.992
relative viability (201T; first compound 0.1581 µM): 1.03
relative viability (201T; first compound 0.5 µM): 1.06
relative viability (A-427; first compound 0.005 µM): 1.05
relative viability (A-427; first compound 0.01581 µM): 0.956
relative viability (A-427; first compound 0.05 µM): 0.825
relative viability (A-427; first compound 0.1581 µM): 1.05
relative viability (A-427; first compound 0.5 µM): 1.06
relative viability (BEN; first compound 0.005 µM): 0.718
relative viability (BEN; first compound 0.01581 µM): 0.596
relative viability (BEN; first compound 0.05 µM): 0.772
relative viability (BEN; first compound 0.1581 µM): 0.714
relative viability (BEN; first compound 0.5 µM): 0.647
relative viability (COR-L 105; first compound 0.005 µM): 0.335
relative viability (COR-L 105; first compound 0.01581 µM): 0.407
relative viability (COR-L 105; first compound 0.05 µM): 0.307
relative viability (COR-L 105; first compound 0.1581 µM): 0.282
relative viability (COR-L 105; first compound 0.5 µM): 0.333
relative viability (COR-L23; first compound 0.005 µM): 0.919
relative viability (COR-L23; first compound 0.01581 µM): 1.25
relative viability (COR-L23; first compound 0.05 µM): 1.33
relative viability (COR-L23; first compound 0.1581 µM): 0.705
relative viability (COR-L23; first compound 0.5 µM): 0.922
relative viability (EKVX; first compound 0.005 µM): 0.233
relative viability (EKVX; first compound 0.01581 µM): 0.21
relative viability (EKVX; first compound 0.05 µM): 0.161
relative viability (EKVX; first compound 0.1581 µM): 0.206
relative viability (EKVX; first compound 0.5 µM): 0.206
relative viability (HARA; first compound 0.005 µM): 0.686
relative viability (HARA; first compound 0.01581 µM): 1
relative viability (HARA; first compound 0.05 µM): 0.799
relative viability (HARA; first compound 0.1581 µM): 0.728
relative viability (HARA; first compound 0.5 µM): 1
relative viability (HCC-15; first compound 0.005 µM): 0.814
relative viability (HCC-15; first compound 0.01581 µM): 0.946
relative viability (HCC-15; first compound 0.05 µM): 0.713
relative viability (HCC-15; first compound 0.1581 µM): 0.813
relative viability (HCC-15; first compound 0.5 µM): 0.836
relative viability (HCC-44; first compound 0.005 µM): 0.888
relative viability (HCC-44; first compound 0.01581 µM): 1.03
relative viability (HCC-44; first compound 0.05 µM): 0.996
relative viability (HCC-44; first compound 0.1581 µM): 0.971
relative viability (HCC-44; first compound 0.5 µM): 1.04
relative viability (HCC-827; first compound 0.005 µM): 0.199
relative viability (HCC-827; first compound 0.01581 µM): 0.2
relative viability (HCC-827; first compound 0.05 µM): 0.194
relative viability (HCC-827; first compound 0.1581 µM): 0.21
relative viability (HCC-827; first compound 0.5 µM): 0.196
relative viability (LK-2; first compound 0.005 µM): 0.802
relative viability (LK-2; first compound 0.01581 µM): 1.08
relative viability (LK-2; first compound 0.05 µM): 1.04
relative viability (LK-2; first compound 0.1581 µM): 0.886
relative viability (LK-2; first compound 0.5 µM): 1.05
relative viability (NCI-H1437; first compound 0.005 µM): 0.729
relative viability (NCI-H1437; first compound 0.01581 µM): 0.759
relative viability (NCI-H1437; first compound 0.05 µM): 0.822
relative viability (NCI-H1437; first compound 0.1581 µM): 0.819
relative viability (NCI-H1437; first compound 0.5 µM): 0.831
relative viability (NCI-H1666; first compound 0.005 µM): 0.584
relative viability (NCI-H1666; first compound 0.01581 µM): 0.694
relative viability (NCI-H1666; first compound 0.05 µM): 0.524
relative viability (NCI-H1666; first compound 0.1581 µM): 0.579
relative viability (NCI-H1666; first compound 0.5 µM): 0.425
relative viability (NCI-H1792; first compound 0.005 µM): 0.901
relative viability (NCI-H1792; first compound 0.01581 µM): 1.05
relative viability (NCI-H1792; first compound 0.05 µM): 0.662
relative viability (NCI-H1792; first compound 0.1581 µM): 0.938
relative viability (NCI-H1792; first compound 0.5 µM): 0.878
relative viability (NCI-H1975; first compound 0.005 µM): 0.859
relative viability (NCI-H1975; first compound 0.01581 µM): 1.02
relative viability (NCI-H1975; first compound 0.05 µM): 1.23
relative viability (NCI-H1975; first compound 0.1581 µM): 0.8
relative viability (NCI-H1975; first compound 0.5 µM): 0.893
relative viability (NCI-H23; first compound 0.005 µM): 1.05
relative viability (NCI-H23; first compound 0.01581 µM): 1.05
relative viability (NCI-H23; first compound 0.05 µM): 1.11
relative viability (NCI-H23; first compound 0.1581 µM): 1.05
relative viability (NCI-H23; first compound 0.5 µM): 1.09
relative viability (NCI-H358; first compound 0.005 µM): 0.481
relative viability (NCI-H358; first compound 0.01581 µM): 0.601
relative viability (NCI-H358; first compound 0.05 µM): 0.397
relative viability (NCI-H358; first compound 0.1581 µM): 0.482
relative viability (NCI-H358; first compound 0.5 µM): 0.583
relative viability (NCI-H596; first compound 0.005 µM): 1.12
relative viability (NCI-H596; first compound 0.01581 µM): 1.23
relative viability (NCI-H596; first compound 0.05 µM): 0.955
relative viability (NCI-H596; first compound 0.1581 µM): 1.28
relative viability (NCI-H596; first compound 0.5 µM): 1.06
relative viability (NCI-H650; first compound 0.005 µM): 0.709
relative viability (NCI-H650; first compound 0.01581 µM): 0.977
relative viability (NCI-H650; first compound 0.05 µM): 1.07
relative viability (NCI-H650; first compound 0.1581 µM): 0.894
relative viability (NCI-H650; first compound 0.5 µM): 0.881
relative viability (NCI-H838; first compound 0.005 µM): 0.921
relative viability (NCI-H838; first compound 0.01581 µM): 1.16
relative viability (NCI-H838; first compound 0.05 µM): 1.29
relative viability (NCI-H838; first compound 0.1581 µM): 0.97
relative viability (NCI-H838; first compound 0.5 µM): 1.03
relative viability (SK-MES-1; first compound 0.005 µM): 0.462
relative viability (SK-MES-1; first compound 0.01581 µM): 0.552
relative viability (SK-MES-1; first compound 0.05 µM): 0.497
relative viability (SK-MES-1; first compound 0.1581 µM): 0.458
relative viability (SK-MES-1; first compound 0.5 µM): 0.523
